Reference: ChEMBL document CHEMBL1201862, “PubChem BioAssay data set” (2004)
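Test compounds were applied to cells in 96-well plates for 48 hours at 5 doses. GI50: concentration for 50% inhibition of growth.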 Calls of active or inactive are those of the source. Cut-off read from the data, not from the text of the source: active = GI50 up to about 1.1 µM and inactive = higher.

How the values were obtained:
Test in all cases: NCI anticancer screen, dose series, 48 h
ACHN = tested on: ACHN
EKVX = tested on: EKVX
HCT-116 = tested on: HCT-116
HL-60 = tested on: HL-60
HOP-92 = tested on: HOP-92
KM12 = tested on: KM12
MOLT-4 = tested on: MOLT-4
NCI-H522 = tested on: NCI-H522
RPMI-8226 = tested on: RPMI-8226
SF-295 = tested on: SF-295
SK-MEL-5 = tested on: SK-MEL-5
SNB-19 = tested on: SNB-19
SR = tested on: SR
SW-620 = tested on: SW-620
UACC-257 = tested on: UACC-257
HCC 2998 = tested on: HCC 2998
HT-29 = tested on: HT-29
M14 = tested on: M14
OVCAR-8 = tested on: OVCAR-8
NCI-H23 = tested on: NCI-H23

Measured: GI50

Cc1cc2[n-][n+]3ncc(-c4ccccc4)n3c2cc1[N+](=O)[O-]
inactive: ACHN > 100 µM | EKVX > 100 µM | HCT-116 > 100 µM | HL-60 > 100 µM | HOP-92 > 100 µM | KM12 > 100 µM | MOLT-4 > 100 µM | NCI-H522 > 100 µM | RPMI-8226 > 100 µM | SF-295 > 100 µM | SK-MEL-5 > 100 µM | SNB-19 > 100 µM | SR > 100 µM | SW-620 > 100 µM | UACC-257 > 100 µM

CCc1c(Cc2[nH]c(Cc3[nH]c(C=O)c(C)c3CC)c(CC)c2CC)[nH]c(C=O)c1C
inactive: ACHN > 100 µM | EKVX > 100 µM | HCC 2998 > 100 µM | HCT-116 > 100 µM | HL-60 > 100 µM | HT-29 > 100 µM | KM12 > 10 µM | M14 > 100 µM | MOLT-4 > 100 µM | NCI-H522 > 100 µM | OVCAR-8 > 100 µM | RPMI-8226 > 100 µM | SF-295 > 100 µM | SK-MEL-5 > 100 µM | SNB-19 > 100 µM | SR > 100 µM | SW-620 > 100 µM

CC(=O)OCC1OC(Nc2ccc3nc(C)n(-c4ccccc4)c(=O)c3c2)C(OC(C)=O)C(OC(C)=O)C1OC(C)=O (configuration not stated)
inactive: ACHN > 50 µM | EKVX > 50 µM | HCC 2998 > 50 µM | HCT-116 > 50 µM | HL-60 23.7 µM | HT-29 > 50 µM | KM12 > 50 µM | MOLT-4 > 50 µM | NCI-H23 > 50 µM | NCI-H522 > 50 µM | OVCAR-8 > 50 µM | RPMI-8226 5.61 µM | SF-295 > 50 µM | SK-MEL-5 > 50 µM | SNB-19 > 50 µM | SR 24.1 µM | SW-620 > 50 µM | UACC-257 > 50 µM

Cc1c(S(=O)(=O)/N=C(\NN)Nc2ccc(Cl)cc2)sc2ccc(Cl)cc12
inactive: ACHN 16.3 µM | EKVX 13.9 µM | HCT-116 13.3 µM | HL-60 32.4 µM | HOP-92 15.1 µM | HT-29 16.6 µM | KM12 15.3 µM | M14 20.5 µM | MOLT-4 13.1 µM | NCI-H23 17.7 µM | NCI-H522 17.3 µM | OVCAR-8 16.8 µM | RPMI-8226 27.9 µM | SF-295 17.9 µM | SK-MEL-5 17.1 µM | SNB-19 23.3 µM | SR 22.2 µM | SW-620 24 µM | UACC-257 18.2 µM

Cc1c2n(c(=O)[nH]c1=O)C1OC(CO)C(O2)C1O (configuration not stated)
inactive: ACHN > 100 µM | EKVX > 100 µM | HCT-116 > 100 µM | HL-60 > 100 µM | HOP-92 > 100 µM | HT-29 > 100 µM | KM12 > 100 µM | MOLT-4 > 100 µM | NCI-H23 > 100 µM | NCI-H522 > 100 µM | OVCAR-8 > 100 µM | RPMI-8226 > 100 µM | SF-295 > 100 µM | SK-MEL-5 > 100 µM | SNB-19 > 100 µM | SR > 100 µM | SW-620 > 100 µM | UACC-257 > 100 µM

CC(C)C1CCC/C=C/C=C/C=C/C=C/C(OC2OC(C)C(O)C(N)C2O)CC2OC(O)(CC(O)CC(O)C(O)CCC(=O)O1)CC(O)C2C(=O)O (configuration not stated)
inactive: ACHN > 52.5 µM | HCT-116 > 52.5 µM | HL-60 > 52.5 µM | HOP-92 > 52.5 µM | HT-29 > 52.5 µM | M14 > 52.5 µM | MOLT-4 > 52.5 µM | NCI-H522 > 52.5 µM | OVCAR-8 > 52.5 µM | RPMI-8226 > 52.5 µM | SF-295 > 52.5 µM | SK-MEL-5 > 52.5 µM | SNB-19 > 52.5 µM | SR > 52.5 µM | SW-620 > 52.5 µM

CCOC(=O)C1C2CCC1CC(=NNc1ccc([N+](=O)[O-])cc1[N+](=O)[O-])C2 (configuration not stated)
inactive: ACHN > 50 µM | EKVX 30.3 µM | HCC 2998 45.1 µM | HCT-116 > 50 µM | HOP-92 15.8 µM | HT-29 47.2 µM | KM12 48.9 µM | M14 > 50 µM | MOLT-4 31.4 µM | NCI-H23 > 50 µM | NCI-H522 > 50 µM | OVCAR-8 > 50 µM | RPMI-8226 42.4 µM | SF-295 8.99 µM | SK-MEL-5 46.2 µM | SNB-19 > 50 µM | SR 18.6 µM | SW-620 > 50 µM | UACC-257 > 50 µM

O=C(CCCCCCCCC(=O)N1C(=O)CC(=O)N(c2ccc(Cl)cc2)C1=S)N1C(=O)CC(=O)N(c2ccc(Cl)cc2)C1=S
inactive: ACHN 35.4 µM | EKVX 47.4 µM | HCC 2998 38.9 µM | HCT-116 48.5 µM | HOP-92 > 100 µM | HT-29 73.5 µM | KM12 27.4 µM | M14 38.5 µM | MOLT-4 19.8 µM | NCI-H23 58.5 µM | NCI-H522 29 µM | OVCAR-8 63.5 µM | RPMI-8226 30.6 µM | SF-295 33 µM | SK-MEL-5 29.9 µM | SNB-19 74.1 µM | SR 8.93 µM | SW-620 > 100 µM | UACC-257 > 100 µM

CN=C(n1ccnc1)n1ccnc1
inactive: EKVX > 100 µM | HCC 2998 > 100 µM | HCT-116 > 100 µM | HL-60 > 100 µM | HT-29 > 100 µM | KM12 > 100 µM | M14 > 100 µM | MOLT-4 > 100 µM | NCI-H23 > 100 µM | NCI-H522 > 100 µM | OVCAR-8 > 100 µM | RPMI-8226 > 100 µM | SK-MEL-5 > 100 µM | SNB-19 > 100 µM | SR > 100 µM | SW-620 > 100 µM | UACC-257 > 100 µM

c1csc(-c2cc(-c3cccs3)c(-c3cccs3)s2)c1
inactive: ACHN > 100 µM | EKVX 55.8 µM | HCC 2998 58.5 µM | HCT-116 40.9 µM | HOP-92 91.8 µM | HT-29 39.3 µM | KM12 46.5 µM | M14 47 µM | MOLT-4 36.1 µM | NCI-H23 96.4 µM | NCI-H522 69.3 µM | OVCAR-8 > 100 µM | SF-295 > 100 µM | SK-MEL-5 33.2 µM | SNB-19 > 100 µM | SR 51.1 µM | SW-620 > 100 µM | UACC-257 55.3 µM

N#CCCOc1cccc(C2(N3CCCCC3)CCCCC2)c1
inactive: ACHN > 100 µM | EKVX > 100 µM | HCT-116 > 100 µM | HL-60 > 100 µM | HT-29 > 100 µM | KM12 > 100 µM | M14 > 100 µM | MOLT-4 > 100 µM | NCI-H23 > 100 µM | NCI-H522 > 100 µM | OVCAR-8 > 100 µM | RPMI-8226 > 100 µM | SF-295 > 100 µM | SK-MEL-5 > 100 µM | SNB-19 > 100 µM | SR > 100 µM | SW-620 > 100 µM | UACC-257 > 100 µM

BC(=O)NC(CC(C)C)C(=O)NC1c2ccsc2C(=O)C1O.CN(C)C (configuration not stated)
inactive: ACHN > 100 µM | EKVX > 100 µM | HCC 2998 > 100 µM | HCT-116 > 100 µM | HL-60 > 100 µM | HT-29 > 100 µM | KM12 > 100 µM | M14 > 100 µM | MOLT-4 > 100 µM | NCI-H23 > 100 µM | NCI-H522 > 100 µM | OVCAR-8 > 100 µM | RPMI-8226 > 100 µM | SF-295 > 100 µM | SK-MEL-5 > 100 µM | SNB-19 > 100 µM | SR > 100 µM | SW-620 > 100 µM | UACC-257 > 100 µM

Nc1n[nH]c2c(C(=O)Nc3ccc(Cl)cc3)c(N)n(N)c(=O)c12
inactive: EKVX > 100 µM | HCC 2998 > 100 µM | HCT-116 > 100 µM | HL-60 > 100 µM | HT-29 > 100 µM | KM12 > 100 µM | M14 > 100 µM | MOLT-4 > 100 µM | NCI-H23 > 100 µM | NCI-H522 > 100 µM | OVCAR-8 > 100 µM | RPMI-8226 > 100 µM | SK-MEL-5 > 100 µM | SNB-19 > 100 µM | SR > 100 µM | SW-620 > 100 µM | UACC-257 > 100 µM

CC1=C(c2ccc(C)cc2)NC(=S)C(C)C(c2ccc(C)cc2)=N1 (configuration not stated)
inactive: ACHN 50.2 µM | EKVX 56.6 µM | HCC 2998 89.3 µM | HCT-116 58.5 µM | HL-60 30.3 µM | HT-29 65.6 µM | KM12 49.7 µM | MOLT-4 32.8 µM | NCI-H23 37 µM | OVCAR-8 > 100 µM | RPMI-8226 40.6 µM | SF-295 67.6 µM | SK-MEL-5 60 µM | SNB-19 > 100 µM | SR > 10 µM | SW-620 > 100 µM | UACC-257 51.1 µM

Nc1ccn(C2(CO)C=C(CO)C(O)C2O)c(=O)n1 (configuration not stated)
inactive: ACHN > 25.8 µM | EKVX > 25.8 µM | HCC 2998 > 25.8 µM | HCT-116 > 25.8 µM | HL-60 > 25.8 µM | KM12 > 25.8 µM | M14 > 25.8 µM | MOLT-4 > 25.8 µM | NCI-H522 > 25.8 µM | OVCAR-8 > 25.8 µM | RPMI-8226 > 25.8 µM | SK-MEL-5 > 25.8 µM | SNB-19 > 25.8 µM | SR > 25.8 µM | SW-620 > 25.8 µM | UACC-257 > 25.8 µM
